Source: EP3122861B1, “LIQUID DETERGENT COMPOSITIONS COMPRISING AN ALPHA-AMYLASE” (priority 2014, dated 2015)

Key:
[1] = Determination of log K by ITC (isothermal titration calorimetry); settings: binding constant of chelator and calcium ions, pH 10
Excerpt: Chelating agents can also be characterized by the binding constant of the chelating agent (chelator) and calcium ions. This constant can be determined by ITC (isothermal titration calorimetry) as described by AD Nielsen, CC Fuglsang and […], Analytical Biochemistry Vol. 314 (2003) page 227-234 and T Wiseman, S Williston, JF Brandts and L-N Lin, Analytical Biochemistry Vol. 179 (1989) page 131-137. All glassware and plastic bottles used are washed with a 1 % (w/w) EDTA solution and subsequently rinsed thoroughly in Chelex 100 treated ultrapure water (Milli-Q water). Solutions are stored in plastic bottles and kept at 5°C until use. […] • 125 μM chelant in 20 mM HEPES, pH 8 or 125 μM chelant in 20 mM glycine, pH 10 • 4 mM CaCl2 in 20 mM HEPES, pH 8 or 4 mM CaCl2 in 20 mM glycine, pH 10 • Ultrapure water (Milli-Q water) […] All solutions are degassed by stirring under vacuum before the experiments. INSTRUMENT: MCS-ITC (MicroCal Inc., Northampton, MA, USA) The reference cell is filled with ultrapure water (Milli-Q water). The sample cell is filled with the chelant solution at the selected pH and the syringe is filled with the calcium solution at the selected pH. The solutions are equilibrated to the desired temperature, e.g. 19°C. […] The obtained signals from the ITC are then integrated using the Origin software supplied by MicroCal Inc. To obtain the binding isotherms, regression routines are made using the same software package. […] Presently preferred is the "OneSites" model which gives the best fit for most of the commonly used chelating agents, i.e. the residuals are evenly distributed around zero. […] Alternatively, the chelating agents can be characterized by the binding constant of the chelating agent (chelator) and calcium ions. This constant can be determined by ITC (isothermal titration calorimetry) as described by AD Nielsen, CC Fuglsang and […], Analytical Biochemistry Vol. 314 (2003) page 227-234 and T Wiseman, S Williston, JF Brandts and L-N Lin, Analytical Biochemistry Vol. 179 (1989) page 131-137. The procedure for the determination of log K is described in detail above under "Materials and Methods". Using this procedure for determination of log K, the following log K values for several chelating agents were determined at pH 10 (Table 12.3). Table 12.3

[2] = Assay for measurement of free calcium ions (calcium ion selective electrode); type: physicochemical; settings: pH 8.0, 49 mM EPPS buffer, 80 mM potassium chloride, 21 °C; for chelator concentrations necessary to reduce the concentration of free calcium ions from 2.0 mM to 0.10 mM: by interpolation
Experimental: The following assay may be used for the measurement of free calcium ions in solution, and thus for the determination of chelating agents (chelants) ability to reduce the concentration of free calcium ions (Ca2+) from e.g. 2.0 mM to 0.10 mM at pH 8.
Various amounts of chelants are added to a solution of 2.0 mM Ca2+ and the free Ca2+ concentration is determined by using a Calcium Ion Selective Electrode at fixed pH and temperature. The concentration of chelant necessary to reduce the concentration of free calcium from 2.0 mM to 0.10 mM can be determined from a plot of the free calcium concentration measured versus the concentration of chelant. In the present assay the concentration of chelant necessary to reduce the concentration of free calcium from 2.0 mM to 0.10 mM is measured at pH 8, at 21°C, in potassium chloride and 49 mM EPPS.
Electrolyte solution: 4 M potassium chloride in ultrapure water (Milli-Q water). pH 8 buffer: 50 mM EPPS (4-(2-Hydroxyethyl)piperazine-1-propanesulfonic acid) adjusted to pH 8.0 using minimum amounts of 1 N sodium hydroxide. Calcium stock solution: 25 mM Ca2+ in pH 8 buffer, made from CaCl2.2H2O. Chelant stock solution: 15 mM chelant (on a 100 % dry chelator basis) in pH 8 buffer, re-adjusted to pH 8.0 using minimum amounts of 1 M NaOH or 1 M HCl.
Calcium Ion Selective Electrode from Thermo Scientific (cat. No. 9720BNWP) calibrated against a Calcium chloride standard solution. The electrode is calibrated as described by the guidelines following the electrode.
A series of vials are prepared, each containing 4 mL of the calcium stock solution (final concentration 2.0 mM), 1 mL electrolyte solution (final concentration 80 mM potassium chloride), chelant stock solution in various amounts (0 - 45 mL) and using the pH 8 buffer for adjusting the total volume to 50 mL. The final concentration of EPPS in the assay is 49 mM. After mixing, the concentration of free Ca2+ is measured by the calcium electrode. The free calcium concentration should be determined at a sufficient number of different chelant concentrations for each chelant tested, ensuring that the data set covers the entire range from 2.0 mM free calcium ions to a value below 0.10 mM or the final chelant concentration in the assay is higher than 10.0 mM. A suitable number of data points are 8 or more. The chelant concentration required to lower the initial 2.0 mM free calcium ions to 0.10 mM is obtained from a plot of the measured free calcium ion concentration versus chelator concentration by interpolation.
The solutions are equilibrated to the desired temperature, which in the present assay is 21°C.
Chelating agents (chelants) may be ranked by their ability to reduce the concentration of free calcium ions (Ca2+) from 2.0 mM to 0.10 mM at pH 8 developed from a method described by M.K.Nagarajan et al., JAOCS, Vol. 61, no. 9 (September 1984), pp. 1475-1478. The assay described above under "Materials and Methods" for measuring of free calcium ions was used. Accordingly, the concentration of chelant necessary to reduce the water hardness from 2.0 mM to 0.10 mM was determined as described above. The experiment was carried out with the pH 8 buffer at 21 °C. Table 12.1: Concentration of free Ca2+ determined in a mixture of 2.0 mM Ca2+ and various amounts of chelating agent at pH 8.
A number of chelants were characterized using this assay, and the chelator concentrations necessary to reduce the concentration of free calcium ions from 2.0 mM to 0.10 mM at pH 8.0 in 49 mM EPPS buffer and 80 mM potassium chloride are shown below in Table 12.2. This table can thus also be used for comparing the capabilities of the chelating agents for reducing the concentration of free calcium ions. Table 12.2

Compound	Log K [1]	chelator concentration to reduce free calcium ions from 2.0 mM to 0.10 mM, Relative to citrate [2]	chelator concentrations necessary to reduce the concentration of free calcium ions from 2.0 mM to 0.10 mM [2] [mM]
O=C(O)CC(O)(CC(=O)O)C(=O)O [Citrate]	3	1.00	8.36
CC(O)(P(=O)(O)O)P(=O)(O)O [HEDP, 1-Hydroxyethylidene-1,1-Diphosphonic Acid]	6	0.20	1.60
O=C(O)CN(CCOCCOCCN(CC(=O)O)CC(=O)O)CC(=O)O [EGTA, ethylene glycol tetraacetic acid]	9	0.33	2.60
O=P(O)(O)CN(CCN(CP(=O)(O)O)CP(=O)(O)O)CCN(CP(=O)(O)O)CP(=O)(O)O [DTMPA, diethylenetriaminepenta(methylene-phosphonic acid)]		0.25	1.17

Further lines, with some results ahead:

Log K [1]	Compound	chelator concentration to reduce free calcium ions from 2.0 mM to 0.10 mM, Relative to citrate [2]	chelator concentrations necessary to reduce the concentration of free calcium ions from 2.0 mM to 0.10 mM [2] [mM]
2.56	C[C@@H](C(=O)O)N(CC(=O)O)CC(=O)O [MGDA, methylglycinediacetic acid or N,N'-bis(carboxymethyl)alanine]	0.33	2.56
8	O=C(O)CN(CCN(CC(=O)O)CC(=O)O)CC(=O)O [EDTA, ethylene diamine tetraacetate]	0.21	1.90
7	O=C(O)CN(CCN(CC(=O)O)CC(=O)O)CCN(CC(=O)O)CC(=O)O [DTPA, diethylenetriaminepentaacetic acid]	0.24	1.87
